Results reported in patent publication US10301304B2, “Selective inhibitor of phosphatidylinositol 3-kinase-gamma” (VERTEX PHARMACEUTICALS INCORPORATED, priority 2013, dated 2019).
Like-named read-outs stand apart in the source and are kept apart here.

Columns and labels:
[1] = Tissue Distribution in Rats; type: in vivo, rat; conditions: 5 mg/kg oral; for Kp at 0.5 h / Kp at 2 h / Kp at 7 h / Kp at 24 h / Kp at 48 h / Kp at 0.5 hr / Kp at 2 hr / Kp at 7 hr / Kp at 24 hr / Kp at 48 hr: male
Experimental: Compound 1 distributed well into most tissues after an oral dose of 5 mg/kg administered to male rats. […] The tissue to plasma ratio followed the trend of liver>kidney>heart>lung>spleen>brain>CSF. The elimination kinetics of Compound 1 in each examined organ followed plasma kinetics. There was no evidence for tissue accumulation of Compound 1 after a single dose administration.

CYP3A4 = CYP3A4 (Homo sapiens, UniProt P08684); assay: Time-dependent inhibition of CYP3A4, IC50 shift assay; type: in vitro ADME; set-up: evaluated in human liver microsomes using the IC50 shift assay; from tissue; host or cells: human liver microsomes; conditions: CYP3A4, preincubation 0 and 30 minutes with/without NADPH, human liver microsomes
Chain of CYP3A4 (P08684 whole entry): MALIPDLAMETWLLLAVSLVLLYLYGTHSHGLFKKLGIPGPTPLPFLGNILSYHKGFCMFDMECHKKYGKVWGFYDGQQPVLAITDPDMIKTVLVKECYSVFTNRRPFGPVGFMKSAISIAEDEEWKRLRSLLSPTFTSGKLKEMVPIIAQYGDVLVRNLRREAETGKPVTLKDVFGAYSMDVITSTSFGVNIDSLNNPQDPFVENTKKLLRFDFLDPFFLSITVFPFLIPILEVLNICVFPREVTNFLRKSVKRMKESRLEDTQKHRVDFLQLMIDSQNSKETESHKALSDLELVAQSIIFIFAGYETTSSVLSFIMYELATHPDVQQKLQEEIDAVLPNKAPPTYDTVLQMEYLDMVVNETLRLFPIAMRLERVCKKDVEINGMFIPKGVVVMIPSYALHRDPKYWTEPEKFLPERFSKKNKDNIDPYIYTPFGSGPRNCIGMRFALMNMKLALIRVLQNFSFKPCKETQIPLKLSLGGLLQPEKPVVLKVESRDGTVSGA
Experimental: Time-dependent inhibition of CYP3A4 by Compound 1 also was evaluated in human liver microsomes using the IC50 shift assay. In the study, Compound 1 at 0.1 to 50 μM was preincubated with human liver microsomes in the presence and absence of NADPH for 0 and 30 minutes. Incubations were then diluted 10-fold with buffer and the remaining CYP3A4 (testosterone-6-beta-hydroxylase) activity was measured over a 10 minute period. There was no significant change (IC50 shift=1) in the IC50 of Compound 1 in the presence or absence of NADPH.

[2] = Intravenous bolus pharmacokinetics; type: in vivo, Rat; conditions: for AUC: rat, iv, 0.5 mg/kg
Excerpt: Following intravenous administration of a single bolus dose, Compound 1 had low systemic clearance and a long half-life in all species tested. […] The volume of distribution was greater than the total body water, indicating distribution of Compound 1 to tissues.

Purified human B cells = assay: Human B Cell Proliferation Assay; type: cell-based
Excerpt: B cells are highly dependent on PI3Kδ for their development and activity. […] has an essential and non-redundant role in signaling via the B cell receptor (BCR) complex. Both IgM induced Ca+ influx and proliferation are attenuated in mice lacking PI3K-δ or with PI3K-δ inhibitors. PI3K-gamma has no role to play in any B cell activity. The specificity of the BCR complex for the […] to evaluate the extent of […] inhibition in cells. Purified human B cells are stimulated with anti-IgM in the presence of test compounds. Four days later cell viability/proliferation was measured using cell titer-glo to measure the ATP content of the cells in the well. Lack of or reduced proliferation is a measure of the extent of […].

Caco-2 = assay: Permeability in Caco-2 cell line; type: in vitro ADME; conditions: Caco-2, 5 μM, A > B
Experimental: (§1) The permeability of Compound 1 was evaluated using both Caco-2 and MadinDarby canine kidney (MDCK) wild-type cell lines. Cells were exposed to drug in buffer on the apical side (measuring permeability in the A-to-B direction) or basolateral side (measuring permeability in the B-to-A direction) and incubated at 37° C. for one hour. Permeability was high in the A-to-B direction in both the MDCK and Caco-2 cell lines (33 and 18×10^−6 cm/sec, respectively).

[3] = Permeability in Caco-2 cell line; type: in vitro ADME; conditions: human
Experimental: as §1

[4] = Rat, single IV bolus, 0.5 mg/kg nominal
[5] = plasma, Rat, single IV bolus, 0.5 mg/kg nominal

Structure (SMILES): Cc1cc(-c2cncc([C@@H](O)C(F)(F)F)c2)nc2c1C(=O)N(c1cnn(CC(F)F)c1)C2(C)C [Compound 1, (R)-6-(1-(2,2-difluoroethyl)-1H-pyrazol-4-yl)-4,7,7-trimethyl-2-(5-(2,2,2-trifluoro-1-hydroxyethyl)pyridin-3-yl)-6,7-dihydro-5H-pyrrolo[3,4-b]pyridin-5-one]
- Cmax, brain ([1]; male rats): 111 ng/g
- Cmax, kidney ([1]; male rats): 4770 ng/g
- Cmax, liver ([1]; male rats): 11400 ng/g
- tissue to plasma ratio trend ([1]; male rats, in words): liver>kidney>heart>lung>spleen>brain>CSF
- Kp at 0.5 h ([1]; CSF (relative to plasma), rat, 0.5 hr post dose, read-out: Tissue to Plasma Ratio, CSF): 0.01
- Kp at 2 h ([1]; CSF (relative to plasma), rat, 2 hr post dose, read-out: Tissue to Plasma Ratio, CSF): 0.01
- Kp at 7 h ([1]; CSF (relative to plasma), rat, 7 hr post dose, read-out: Tissue to Plasma Ratio, CSF): 0.01
- Kp at 24 h ([1]; CSF (relative to plasma), rat, 24 hr post dose, read-out: Tissue to Plasma Ratio, CSF): 0.01
- Kp at 7 h ([1]; brain (relative to plasma), rat, 7 hr post dose, read-out: Tissue to Plasma Ratio, Brain): 0.05
- Kp at 24 h ([1]; brain (relative to plasma), rat, 24 hr post dose, read-out: Tissue to Plasma Ratio, Brain): 0.06
- Kp at 0.5 h ([1]; brain, rat, 0.5 hr post dose, read-out: Tissue to Plasma Ratio, Brain): 0.04
- Kp at 2 h ([1]; brain, rat, 2 hr post dose, read-out: Tissue to Plasma Ratio, Brain): 0.07
- Kp at 48 h ([1]; brain, rat, 48 hr post dose, read-out: Tissue to Plasma Ratio, Brain): 0.07
- Kp at 0.5 hr ([1]; heart, rat, 0.5 hr post dose, read-out: Tissue to Plasma Ratio, Heart): 0.98
- Kp at 2 hr ([1]; heart, rat, 2 hr post dose, read-out: Tissue to Plasma Ratio, Heart): 1.67
- Kp at 7 hr ([1]; heart, rat, 7 hr post dose, read-out: Tissue to Plasma Ratio, Heart): 1.4
- Kp at 24 hr ([1]; heart, rat, 24 hr post dose, read-out: Tissue to Plasma Ratio, Heart): 1.46
- Kp at 48 hr ([1]; heart, rat, 48 hr post dose, read-out: Tissue to Plasma Ratio, Heart): 1.39
- Kp at 0.5 hr ([1]; kidney, rat, 0.5 hr post dose, read-out: Tissue to Plasma Ratio, Kidney): 1.75
- Kp at 2 hr ([1]; kidney, rat, 2 hr post dose, read-out: Tissue to Plasma Ratio, Kidney): 2.54
- Kp at 7 hr ([1]; kidney, rat, 7 hr post dose, read-out: Tissue to Plasma Ratio, Kidney): 2.16
- Kp at 24 hr ([1]; kidney, rat, 24 hr post dose, read-out: Tissue to Plasma Ratio, Kidney): 3.03
- Kp at 48 hr ([1]; kidney, rat, 48 hr post dose, read-out: Tissue to Plasma Ratio, Kidney): 4.76
- Kp at 0.5 h ([1]; liver, rat, 0.5 hr post dose, read-out: Tissue to Plasma Ratio, Liver): 4.96
- Kp at 2 h ([1]; liver, rat, 2 hr post dose, read-out: Tissue to Plasma Ratio, Liver): 6.99
- Kp at 7 h ([1]; liver, rat, 7 hr post dose, read-out: Tissue to Plasma Ratio, Liver): 5.13
- Kp at 24 h ([1]; liver, rat, 24 hr post dose, read-out: Tissue to Plasma Ratio, Liver): 5.69
- Kp at 48 hr ([1]; liver, rat, 48 hr post dose, read-out: Tissue to Plasma Ratio, Liver): 5.32
- Kp at 0.5 h ([1]; lung, rat, 0.5 hr post dose, read-out: Tissue to Plasma Ratio, Lung): 1.24
- Kp at 2 h ([1]; lung, rat, 2 hr post dose, read-out: Tissue to Plasma Ratio, Lung): 1.38
- Kp at 7 h ([1]; lung, rat, 7 hr post dose, read-out: Tissue to Plasma Ratio, Lung): 1.22
- Kp at 24 h ([1]; lung, rat, 24 hr post dose, read-out: Tissue to Plasma Ratio, Lung): 1.17
- Kp at 48 h ([1]; lung, rat, 48 hr post dose, read-out: Tissue to Plasma Ratio, Lung): 1.31
- Kp at 0.5 h ([1]; spleen, rat, 0.5 hr post dose, read-out: Tissue to Plasma Ratio, Spleen): 0.74
- Kp at 2 h ([1]; spleen, rat, 2 hr post dose, read-out: Tissue to Plasma Ratio, Spleen): 1.15
- Kp at 7 h ([1]; spleen, rat, 7 hr post dose, read-out: Tissue to Plasma Ratio, Spleen): 0.81
- Kp at 24 h ([1]; spleen, rat, 24 hr post dose, read-out: Tissue to Plasma Ratio, Spleen): 0.93
- Kp at 48 h ([1]; spleen, rat, 48 hr post dose, read-out: Tissue to Plasma Ratio, Spleen): 0.88
- Compound 1 Concentration, Brain ([1]; rat, 0.5 hr post dose): 74 ng/ml or ng/g
- Compound 1 Concentration, CSF ([1]; rat, 0.5 hr post dose): 20 ng/ml or ng/g
- Compound 1 Concentration, Heart ([1]; rat, 0.5 hr post dose): 1730 ng/ml or ng/g
- Compound 1 Concentration, Kidney ([1]; rat, 0.5 hr post dose): 3070 ng/ml or ng/g
- Compound 1 Concentration, Liver ([1]; rat, 0.5 hr post dose): 8710 ng/ml or ng/g
- Compound 1 Concentration, Lung ([1]; rat, 0.5 hr post dose): 2180 ng/ml or ng/g
- Compound 1 Concentration, Plasma ([1]; rat, 0.5 hr post dose): 1760 ng/ml or ng/g
- Compound 1 Concentration, Spleen ([1]; rat, 0.5 hr post dose): 1290 ng/ml or ng/g
- Compound 1 Concentration, Brain ([1]; rat, 2 hr post dose): 129 ng/ml or ng/g
- Compound 1 Concentration, CSF ([1]; rat, 2 hr post dose): 23.3 ng/ml or ng/g
- Compound 1 Concentration, Heart ([1]; rat, 2 hr post dose): 3280 ng/ml or ng/g
- Compound 1 Concentration, Kidney ([1]; rat, 2 hr post dose): 4980 ng/ml or ng/g
- Compound 1 Concentration, Liver ([1]; rat, 2 hr post dose): 13700 ng/ml or ng/g
- Compound 1 Concentration, Lung ([1]; rat, 2 hr post dose): 2710 ng/ml or ng/g
- Compound 1 Concentration, Plasma ([1]; rat, 2 hr post dose): 1960 ng/ml or ng/g
- Compound 1 Concentration, Spleen ([1]; rat, 2 hr post dose): 1790 ng/ml or ng/g
- Compound 1 Concentration, Brain ([1]; rat, 7 hr post dose): 111 ng/ml or ng/g
- Compound 1 Concentration, CSF ([1]; rat, 7 hr post dose): 27 ng/ml or ng/g
- Compound 1 Concentration, Heart ([1]; rat, 7 hr post dose): 3100 ng/ml or ng/g
- Compound 1 Concentration, Kidney ([1]; rat, 7 hr post dose): 4770 ng/ml or ng/g
- Compound 1 Concentration, Liver ([1]; rat, 7 hr post dose): 11400 ng/ml or ng/g
- Compound 1 Concentration, Lung ([1]; rat, 7 hr post dose): 2700 ng/ml or ng/g
- Compound 1 Concentration, Plasma ([1]; rat, 7 hr post dose): 2210 ng/ml or ng/g
- Compound 1 Concentration, Spleen ([1]; rat, 7 hr post dose): 491 ng/ml or ng/g
- Compound 1 Concentration, Brain ([1]; rat, 24 hr post dose): 30 ng/ml or ng/g
- Compound 1 Concentration, CSF ([1]; rat, 24 hr post dose): 5 ng/ml or ng/g
- Compound 1 Concentration, Heart ([1]; rat, 24 hr post dose): 771 ng/ml or ng/g
- Compound 1 Concentration, Kidney ([1]; rat, 24 hr post dose): 1600 ng/ml or ng/g
- Compound 1 Concentration, Liver ([1]; rat, 24 hr post dose): 3010 ng/ml or ng/g
- Compound 1 Concentration, Lung ([1]; rat, 24 hr post dose): 617 ng/ml or ng/g
- Compound 1 Concentration, Plasma ([1]; rat, 24 hr post dose): 592 ng/ml or ng/g
- Compound 1 Concentration, Spleen ([1]; rat, 24 hr post dose): 125 ng/ml or ng/g
- Compound 1 Concentration, Brain ([1]; rat, 48 hr post dose): 9.35 ng/ml or ng/g
- Compound 1 Concentration, CSF ([1]; rat, 48 hr post dose): BQL
- Compound 1 Concentration, Heart ([1]; rat, 48 hr post dose): 196 ng/ml or ng/g
- Compound 1 Concentration, Kidney ([1]; rat, 48 hr post dose): 673 ng/ml or ng/g
- Compound 1 Concentration, Liver ([1]; rat, 48 hr post dose): 750 ng/ml or ng/g
- Compound 1 Concentration, Lung ([1]; rat, 48 hr post dose): 185 ng/ml or ng/g
- Compound 1 Concentration, Plasma ([1]; rat, 48 hr post dose): 141 ng/ml or ng/g
- Compound 1 Concentration, Spleen ([1]; rat, 48 hr post dose): BQL
- Tissue to Plasma Ratio, CSF ([1]; rat, 48 hr post dose): BQL
- Kp ([1]; rat, brain and CSF, relative to plasma, male rats, read-out: brain and CSF exposure, % of the plasma exposure): < 0.001
- Cmax ([1]; rat, cerebrospinal fluid (CSF), male rats): 27 ng/mL
- IC50 shift (CYP3A4): 1
- % HBF (hepatic blood flow) [2, 4]: ~3.6%
- DN_AUCINF [2, 4]: 6.2 µg·h/mL
- AUC(0-inf) [2, 5]: 3100 ng·h/mL
- half-life [2, 5]: 492 min
- clearance ([2]; plasma, Rat, single IV bolus, 0.5 mg/kg nominal, read-out: CL): 2.8 mL/min/kg
- Vd ([2]; plasma, Rat, single IV bolus, 0.5 mg/kg nominal, read-out: Vss): 1.8 L/kg
- AUC ([2]; plasma, Intravenous bolus, 0.5 mg/kg nominal dose, read-out: Rat IV AUC): 3100 ng·h/mL
- AUC ([2]; plasma, Rat, single IV bolus, 0.5 mg/kg nominal, read-out: AUCALL): 2690 ng·h/mL
- selectivity window over PI3K-δ (Purified human B cells; B cell proliferation): 11 fold
- IC50 (Purified human B cells; Homo sapiens, 96 h, B cell/IgM/Proliferation, four days, read-out: IC50 Avg +/− SD): 3.05 ± 0.44 µM
- selectivity over PI3K-delta in cell based assays (Purified human B cells; summary): 12 fold
- Avg. Papp (Caco-2): 3.26e-05 cm/s
- Papp A→B at 1 h, 5 μM ([3]; Caco-2, Caco-2, 5 μM, A > B): 18 ×10⁻⁶ cm/s
- recovery at 1 h, 5 μM ([3]; Caco-2, Caco-2, 5 μM, A > B): 87%
- recovery at 1 h, 5 μM ([3]; Caco-2, Caco-2, 5 μM, B > A): 96%
- efflux ratio at 1 h, 5 μM ([3]; Caco-2, 5 μM): 1.9
- Papp B→A at 1 h, 5 μM ([3]; Caco-2, 5 μM, B > A): 60.7 ×10⁻⁶ cm/s
